Results taken from US12097213B2, “Sequential treatment of cancers using 6-thio-dG, checkpoint inhibitors and radiation therapy” (The Board of Regents of the University of Texas System, priority 2020, dated 2024).

Key:
[1] = test system: A375 human melanoma cancer cells; test: Cell viability assay (CellTiter 96), A375; type: cell-based; details: treated for 4 days
Method: (§1) Cell viability assay. For determination of IC50 with cell proliferation assays, murine and human cancer cell lines were screened with 6-thio-dG with a 2-fold dilution series in 8 different points in 96-well plates. Cells were plated 24 hrs prior to the addition of drug, incubated for 4-5 days, and assayed using CellTiter 96® Aqueous One Solution Cell Proliferation Assay according to the manufacturer's instructions (Promega). Cell number per well ranged from 1,000 to 10,000 cells per well inversely proportional to doubling times. Dose response curves were generated and IC50s calculated using Graphpad Prism. All samples were analyzed in triplicate and standard deviations are from 2-3 independent experiments.

MC38 cells = test: Cell viability assay (CellTiter 96), MC38; type: cell-based; details: Mus musculus, MC-38, 120 h; cells treated for 5 days; read-out: IC50 concentration, cell viability
Method: as §1

[2] = test system: DCs co-cultured with MC38 cells; test: Detection of EdU-labeled tumor DNA in bone marrow derived dendritic cells; type: cell-based, mouse; details: MC38 labeled with 25 μM EdU, 1 μM 6-thio-dG
Method: Detection of DNA in Bone Marrow Derived Dendritic Cells. Cells were labeled with EdU as described previously (Min et al., 2019). Briefly, 100,000 MC38 cells were seeded to 6-well plate and labeled with 25 μM EdU. Two days later, cells were washed out and treated with 1 μM 6-thio-dG for 24 hrs. Cells were washed out again and co-cultured with BMDCs for overnight. Next day, DCs were sorted out with magnetic beads, washed, fixed and cytospun. Slides were then stained with 6-carboxytetramethlyrhodamine fluorescent azide (Invitrogen) in fresh homemade EdU-staining solution (PBS containing 1 mM CuSO4, 2 mM ascorbic acid) for 30 min. Slides were then washed vigorously with PBS for at least 1 hr, and then telomere FISH steps using a FAM-TelG probe were followed as described in “Telomere dysfunction Induced Foci (TIF) and micronuclei assays” method parts. Images were captured at 63× magnification with an Axio Imager Z2 equipped with an automatic metaphase capture system (Coolcubel camera) and analyzed with ISIS software (Metasystems).

tumor-specific T cells = test: IFN-γ ELISPOT of splenocytes / draining lymph node cells; type: in vivo, mouse; details: splenocytes re-stimulated with irradiated MC38 tumor cells 48 hrs; 3 mg/kg, days 7, 8, 9
Method: IFN-γ enzyme-linked immunosorbent spot assay (ELISPOT). MC38 tumors were injected subcutaneously on the right flank of C57BL/6. For 6-thio-dG single treatment, 3 mg/kg 6-thio-dG was intraperitoneally given on days 7, 8 and 9; for PD-L1 blockade combination therapy in MC38 model, 3 mg/kg 6-thio-dG was given on day 10 and day 11, 50 μg PD-L1 was intraperitoneally injected on day 11. 7 days after last treatment, tumor draining lymphoid and spleen from tumor-bearing mice were collected and single-cell suspension was prepared. Irradiated MC38 tumor cells and control LLC tumor cells were used to re-stimulate the tumor-specific T cells. 1.5×10^5 draining lymph nodes cells or splenocytes and 7.5×10^4 irradiated tumor cells were co-cultured for 48 hrs, and ELISPOT assay was performed using the IFN-γ ELISPOT kit (BD Bioscience) according to the manufacturer's instructions. IFN-γ spots were enumerated with the CTL-ImmunoSpot® S6 Analyzer (Cellular Technology Limited).

TBK1 = test: Immunoblotting of DCs after co-culture; type: cell-based, mouse; details: co-culture 6 hrs with MC38 pretreated with 0.2 μM or 1 μM 6-thio-dG
Method: Immunoblotting. BMDC and MC38 treatment were same as “In vitro co-culture of bone marrow dendritic cells”. 6 hrs after co-culture, DC was isolated with CD11c+ positive selection kit (Stemcell). Protein sample preparation and immunoblot procedures were performed as previously described (Liu et al., 2019). Proteins were detected with rabbit monoclonal antibodies for pSTING (Cell signaling, 72971), STING (Cell signaling, 50494), pTBK1 (Cell signaling, 5483), TBK1 (Cell signaling, 3504). Protein loading was determined with antibodies against with Cyclophilin A (Cell signaling, 2175). Anti-rabbit (1:2000 in 5% BSA) was used for secondary antibody (Cell signaling, 7074). X-ray film (GeneMate, F-9024-8X10) was used to develop the membranes. Clarity Max Western ECL Substrate (Biorad, 1705062) or Supersignal West PicoPlus Chemiluminescent Substrate (Thermoscientific, 34577) was used for chemiluminescent western blot.

CT26 tumor cells = test: CT26 tumor growth and treatment in mice; type: in vivo, mouse; details: BALB/C mice; 3 mg/kg, three days treatment (days 5, 6, 7)
Method: (§2) Tumor growth and treatment. A total of 5×10^5 MC38, 5×10^5 CT26 or 1×10^6 LLC cells were inoculated subcutaneously into right dorsal flanks of the mice in 100 μL phosphate buffered saline (PBS). Tumor-bearing mice were randomly grouped into treatment groups when tumors grew to around 100 mm^3. For 6-thio-dG single treatment, 3 mg/kg 6-thio-dG was intraperitoneally given on days 7, 8 and 9 in MC38 tumor and LLC tumor and on days 5, 6, 7 for CT26 tumor. For CSF1R, NKL.1, CD4+ and CD8+ T cell depletion, 200 μg of antibodies were intraperitoneally injected 1 day before treatment initiation and then twice a week for 2 weeks. For PD-L1 blockade combination therapy in MC38 model, 6-thio-dG was given on day 10 and day 11, 50 μg PD-L1 was intraperitoneally injected on day 13 and 17. For PD-L1 blockade combination therapy in LLC model, 6-thio-dG was given on day 4, 5, 6, 10 and 11, 200 μg PD-L1 was intraperitoneally injected on day 8 and 13. Tumor volumes were measured by the length (a), width (b) and height (h) and calculated as tumor volume=abh/2.

[3] = test system: CT26 murine colon cancer cells; test: Cell viability assay (CellTiter 96), CT26; type: cell-based, mouse
Method: as §1

[4] = test system: HCT116 human colon cancer cells; test: Cell viability assay (CellTiter 96), HCT116; type: cell-based; details: HCT-116, 120 h, cells treated for 5 days
Method: as §1

[5] = test system: LLC murine lung tumor cells; test: LLC tumor growth and treatment in mice; type: in vivo, mouse
Method: as §2, with “For 6-thio-dG single treatment, 3 mg/kg 6-thio-dG was intraperitoneally given on days 7, 8 and 9 in MC38 tumor and LLC tumor and on days 5, 6, 7 for CT26 tumor.” left out

With `Nc1nc2c(ncn2[C@H]2C[C@H](O)[C@@H](CO)O2)c(=S)[nH]1` [6-thio-dG, 6-thio-2′-deoxyguanosine] the “sensitivity in vitro (cell viability)” value [1] was “sensitive”, the IC50 (MC38 cells) was 370 nM and the “telomere co-localization with EdU in EdU+ DCs” value [2] was “increase”. The “tumor-specific cytotoxic T cell responses (IFN-γ producing T cells)” value (tumor-specific T cells) was “enhanced”, the “TBK1 phosphorylation in DCs” value (TBK1) was “increase” and the tumor growth (CT26 tumor cells) was “significant tumor growth delay”. For the same compound, the “cell viability in vitro” value [3] was “cell viability inhibition”, the IC50 [4] was 730 nM and the tumor growth ([5]; C57BL/6 mice, 3 mg/kg, three days treatment (days 4, 5, 6)) was “significant tumor growth delay”. For the same compound, the “tumor growth (FIG. 8A)” value ([5]; lewis lung carcinoma, three days 6-thio-dG followed two days later with anti-PD-L1) was “significant tumor control for 20 days”.
